Measured values from ChEMBL document CHEMBL1201862, “PubChem BioAssay data set” (2004).
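Results reflect a 48-hour exposure of cells in 96-well plates to compound at five concentrations. Here, GI50 denotes the concentration required for 50% inhibition of growth.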 Active and inactive are the calls of the source. No stated cut-off is given here; in the data, active = GI50 up to about 1.1 µM and inactive = higher.

How the values were obtained:
Assay in all cases: inhibition of tumour cell growth, NCI panel, 48 h
786-0 = system: 786-0
A498 = system: A498
A549 = system: A549
ACHN = system: ACHN
CAKI-1 = system: CAKI-1
CCRF-CEM = system: CCRF-CEM
COLO 205 = system: COLO 205
DMS-114 = system: DMS-114
DMS-273 = system: DMS-273
EKVX = system: EKVX
HCT-116 = system: HCT-116
HCT-15 = system: HCT-15
HL-60 = system: HL-60
HT-29 = system: HT-29
K562 = system: K562
KM-20L2 = system: KM-20L2
KM12 = system: KM12
LOX IMVI = system: LOX IMVI
LXFL 529 = system: LXFL 529
M14 = system: M14
M19-MEL = system: M19-MEL
MOLT-4 = system: MOLT-4
Malme-3M = system: Malme-3M
NCI-H23 = system: NCI-H23
NCI-H460 = system: NCI-H460
NCI-H522 = system: NCI-H522
OVCAR-3 = system: OVCAR-3
OVCAR-4 = system: OVCAR-4
OVCAR-5 = system: OVCAR-5
OVCAR-8 = system: OVCAR-8
RPMI-8226 = system: RPMI-8226
RXF 393 = system: RXF 393
SF-268 = system: SF-268
SF-295 = system: SF-295
SF-539 = system: SF-539
SK-MEL-28 = system: SK-MEL-28
SK-MEL-2 = system: SK-MEL-2
SK-MEL-5 = system: SK-MEL-5
SK-OV-3 = system: SK-OV-3
SN12C = system: SN12C
SNB-19 = system: SNB-19
SNB-75 = system: SNB-75
SNB-78 = system: SNB-78
SR = system: SR
SW-620 = system: SW-620
U-251 = system: U-251
UACC-257 = system: UACC-257
UACC-62 = system: UACC-62
UO-31 = system: UO-31
HCC 2998 = system: HCC 2998
HOP-18 = system: HOP-18
HOP-62 = system: HOP-62
HOP-92 = system: HOP-92
IGROV-1 = system: IGROV-1
TK-10 = system: TK-10

Cc1ccc(-c2nc3ccccc3c(=O)n2NCC2(O)OCC(O)C(O)C2O)cc1 (configuration not stated)
GI50 (786-0): > 100 µM (inactive) | GI50 (A498): > 100 µM (inactive) | GI50 (A549): > 100 µM (inactive) | GI50 (ACHN): > 100 µM (inactive) | GI50 (CAKI-1): > 100 µM (inactive) | GI50 (CCRF-CEM): > 100 µM (inactive) | GI50 (COLO 205): > 100 µM (inactive) | GI50 (DMS-114): > 100 µM (inactive) | GI50 (DMS-273): > 100 µM (inactive) | GI50 (EKVX): > 100 µM (inactive) | GI50 (HCT-116): > 100 µM (inactive) | GI50 (HCT-15): > 100 µM | GI50 (HL-60): > 100 µM (inactive) | GI50 (HT-29): > 100 µM (inactive) | GI50 (K562): > 100 µM (inactive) | GI50 (KM-20L2): > 100 µM (inactive) | GI50 (KM12): > 100 µM (inactive) | GI50 (LOX IMVI): > 100 µM (inactive) | GI50 (LXFL 529): > 100 µM (inactive) | GI50 (M14): > 100 µM (inactive) | GI50 (M19-MEL): > 100 µM (inactive) | GI50 (MOLT-4): > 100 µM (inactive) | GI50 (Malme-3M): > 100 µM (inactive) | GI50 (NCI-H23): > 100 µM (inactive) | GI50 (NCI-H460): > 100 µM (inactive) | GI50 (NCI-H522): > 100 µM (inactive) | GI50 (OVCAR-3): > 100 µM (inactive) | GI50 (OVCAR-4): > 100 µM (inactive) | GI50 (OVCAR-5): > 100 µM (inactive) | GI50 (OVCAR-8): > 100 µM (inactive) | GI50 (RPMI-8226): > 100 µM (inactive) | GI50 (RXF 393): > 100 µM (inactive) | GI50 (SF-268): > 100 µM (inactive) | GI50 (SF-295): > 100 µM (inactive) | GI50 (SF-539): > 100 µM (inactive) | GI50 (SK-MEL-28): > 100 µM (inactive) | GI50 (SK-MEL-2): > 100 µM (inactive) | GI50 (SK-MEL-5): > 100 µM (inactive) | GI50 (SK-OV-3): > 100 µM (inactive) | GI50 (SN12C): > 100 µM (inactive) | GI50 (SNB-19): > 100 µM (inactive) | GI50 (SNB-75): > 100 µM (inactive) | GI50 (SNB-78): > 100 µM (inactive) | GI50 (SR): > 100 µM (inactive) | GI50 (SW-620): > 100 µM (inactive) | GI50 (U-251): > 100 µM (inactive) | GI50 (UACC-257): > 100 µM (inactive) | GI50 (UACC-62): > 100 µM (inactive) | GI50 (UO-31): > 100 µM (inactive)

COc1ccc(-c2nnc3c4ccccc4sn23)cc1
GI50 (A549): 25.4 µM (inactive) | GI50 (ACHN): 28 µM (inactive) | GI50 (CCRF-CEM): 7.23 µM (inactive) | GI50 (COLO 205): 42.4 µM (inactive) | GI50 (DMS-114): 17.1 µM (inactive) | GI50 (DMS-273): 10.8 µM (inactive) | GI50 (EKVX): 50.7 µM (inactive) | GI50 (HCC 2998): 17 µM (inactive) | GI50 (HCT-116): 30.2 µM (inactive) | GI50 (HCT-15): 6.28 µM | GI50 (HL-60): 15.9 µM (inactive) | GI50 (HOP-18): 23.2 µM (inactive) | GI50 (HOP-62): 5.69 µM (inactive) | GI50 (HOP-92): 34.9 µM (inactive) | GI50 (HT-29): 26.8 µM (inactive) | GI50 (IGROV-1): 19.8 µM (inactive) | GI50 (K562): 16.6 µM (inactive) | GI50 (KM-20L2): 29.2 µM (inactive) | GI50 (KM12): 19.3 µM (inactive) | GI50 (LOX IMVI): 14.8 µM (inactive) | GI50 (LXFL 529): 23.7 µM (inactive) | GI50 (M14): 26.4 µM (inactive) | GI50 (M19-MEL): 22.5 µM (inactive) | GI50 (MOLT-4): 15.3 µM (inactive) | GI50 (NCI-H23): 13.3 µM (inactive) | GI50 (NCI-H460): 4.58 µM (inactive) | GI50 (OVCAR-3): 17.1 µM (inactive) | GI50 (OVCAR-4): 47 µM (inactive) | GI50 (OVCAR-5): > 100 µM (inactive) | GI50 (OVCAR-8): 32.5 µM (inactive) | GI50 (RPMI-8226): 19.1 µM (inactive) | GI50 (RXF 393): 6.43 µM (inactive) | GI50 (SF-268): 22.5 µM (inactive) | GI50 (SF-539): 32.7 µM (inactive) | GI50 (SK-MEL-28): 22.8 µM (inactive) | GI50 (SK-MEL-2): 19 µM (inactive) | GI50 (SK-MEL-5): 34.4 µM (inactive) | GI50 (SN12C): 17.8 µM (inactive) | GI50 (SNB-19): 29.9 µM (inactive) | GI50 (SNB-75): 10.2 µM (inactive) | GI50 (SNB-78): 41.9 µM (inactive) | GI50 (SR): 16.6 µM (inactive) | GI50 (SW-620): 49 µM (inactive) | GI50 (TK-10): > 100 µM (inactive) | GI50 (U-251): 23.4 µM (inactive) | GI50 (UACC-257): 20 µM (inactive) | GI50 (UACC-62): 35.4 µM (inactive) | GI50 (UO-31): 14.3 µM (inactive)
